Measured values from patent US20080249144A1, “Preventive or Therapeutic Agent for Chronic Inflammatory Lung Disease” (KAKEN PHARMACEUITICAL CO., LTD., priority 2004, published 2008).

What was measured:
[1] = test system: vanadium pentoxide-induced bronchitis model; experiment: Vanadium pentoxide-induced bronchitis model in mice; format: in vivo; settings: 7 days after vanadium pentoxide; compared with control
Description: Seven-week old C57BL strain male mice were used. The mouse was anaesthetized with isoflurane. Vanadium pentoxide (20 μg) was administered once to the lung through a cannula inserted into the trachea through the pharyngolarynx to induce pathology. To a non-vanadium pentoxide administration group (normal group), saline was administered, instead. KP-496 was administered by inhalation twice a day in the period from the vanadium pentoxide administration date to the day before autopsy, in the same manner as in Example 2. Furthermore, the normal group and the control group were allowed to spontaneously inhale saline in the same manner. A medicament for use in comparison, prednisolone, was orally administered at a dose of 5 mg/kg twice a day in the period from the vanadium pentoxide administration date to the day before autopsy. Note that the normal group consisted of 6 animals and the other group consisted of 10 animals. Each of the mice was anaesthetized with pentobarbital 7 days after vanadium pentoxide administration and killed by bloodletting from the abdominal aorta. The lung was excised out and fixed in 10 vol % neutral buffered formalin solution. […] The obtained value was divided by the circumferential length of the bronchial lumen (obtained in mucosal basal membrane) and the quotient was expressed as a mucus producing region area per millimeter of the bronchus. […]

[2] = test system: PPE-induced pulmonary emphysema model; experiment: PPE-induced pulmonary emphysema model in mice; format: in vivo
Description: Eight-week old C57BL strain mice were anaesthetized with isoflurane. PPE (25 μg) was administered once to the lung through a cannula inserted into the trachea through the pharyngolarynx to induce a pulmonary damage. To a non-PPE administration group (normal group), saline was administered instead. In a preventive administration experiment (hereinafter referred to as a “preventive experiment”) of KP-496, drug effect was evaluated on inflammatory cells in BALF 2 days after PPE administration and by histopathological examination of the lung after 10 days. In a therapeutic administration experiment of KP-496 (hereinafter referred to as a “therapeutic experiment”), the drug effect was evaluated by histo-pathological examination of the lung and weight of the organs 14 days after PPE administration.
The medicament administration period was set from the PPE administration date to the day before autopsy in the preventive experiment and set from a predetermined day (KP-496A group: PPE administration date, KP-496B group: 3 days after PPE administration date, KP-496C group: 7 days after PPE administration date) to the day before autopsy in the therapeutic experiment. Inhalation administration of KP-496 was performed in the same manner as in Example 2. Furthermore, the normal group and the control group were allowed to spontaneously inhale saline, instead. A medicament for use in comparison, prednisolone, was orally administered in a dose of 5 mg/kg twice a day. A group consisted of 10 animals.
The animals were anaesthetized with pentobarbital and killed by exsanguination. Immediately after that, BAL of the right and left lungs was performed with 2 ml of saline. In the same manner as in Example 2, the total number of cells and the number of cells according to the cell type in the BALE were determined.
The lung was excised out from the animal killed by exsanguination in the same manner as in the above, the weight of the lung was measured. The lung was fixed in 10 vol % neutral buffered formalin solution. A pathological tissue sample was prepared in accordance in a general way. The degree of the damage of the lung tissue observed was evaluated by scoring in the same manner as in Example 2. Furthermore, the average of alveolar-space area of the entire lung tissue sample was computationally measured with image-processing software.
The average value and standard deviation of each group were calculated. Comparison between the normal group and the control group was performed by the Levene's test for equal variance and then, the t-test was performed depending on the results. To compare the control group and test substance administration groups, equal variance was first confirmed by the Levene's test and then multiple comparisons were performed in accordance with the Dunnett's test. Note that evaluation parameters with unequal variance and the damage score of the lung tissue were analyzed by nonparametric Mann-Whitney test. The significance level employed was […].

human neutrophils = experiment: LTB4-induced human neutrophil migration (48-well modified Boyden chamber); format: cell-based; settings: test substance 10 μmol/L; 10 nmol/L LTB4
Description: Leukocytes were collected from human peripheral blood samples (20 mL of venous blood was taken by a doctor) were obtained from 4 healthy adults (male). They received sufficient information on the purpose of the experiment and gave informed consent in advance. An equivalent amount of 3% dextran (M.W. 208000) saline solution was added to the heparinized blood thus obtained and the mixture was kept to stand for one hour. Thereafter, the supernatant was collected and centrifuged at 150 g for 5 minutes at 4° C. The supernatant was discarded and the pellet was repeatedly twice haemolysed. To explain in detail, 4 mL of an ice-cooled 0.2% NaCl solution was added, quickly suspended and allowed to stand for 20 to 30 seconds. Thereafter, 4 mL of an ice-cooled 1.6% NaCl solution was added to the suspension solution to return the solution to the isotonic condition. After centrifugation was performed at 150 g for 5 minutes at 4° C., the same treatment was repeated. The cell pellet obtained was finally suspended in a buffer (Hank's solution containing 0.1% FBS) and subjected to an experiment.
This experiment was performed using a 48-well modified Boyden chamber (Neuro Probe). To explain in detail, the wells of the bottom plate of the chamber were filled with 25 μl of vehicle solution containing 10 nmol/L of LTB4. A polycarbonate filter (PVP-free, pore size: 3 μm) was placed on the bottom plate. The top plate of the chamber was mounted and each well of the upper plate was filled with 45 μL of a leukocyte suspension solution (1.0×10^6 cells/mL) prepared with the buffer. Immediately after that, 5 μL of a test substance (10 fold concentration of a final concentration) was added to the wells. […] The numbers of cells were counted in 4 visual fields (×400) per well and the average of them was regarded as the number of migrated cells. Each test substance was evaluated using 3 wells. The average value of these wells was calculated and regarded as the value of each substance.
The average and standard deviation of each group were calculated. […]

COPD patients = settings: according to the reports (Non-patent documents 7, 8 and patent document 1); cited from earlier work

Q: What does the source list for `C[C@]12C=CC(=O)C=C1CC[C@@H]1[C@@H]2[C@@H](O)C[C@@]2(C)[C@H]1CC[C@]2(O)C(=O)CO` [prednisolone, reference compound]?
A: increase of PAS positive area (mucus producing region of intrapulmonary bronchial epithelium) [1]: significantly suppressed; total number of cells in BALF ([2]; 2 days after PPE administration, preventive experiment): 4.3±2.1 ×10^5 cells; number of eosinophils in BALF ([2]; 2 days after PPE, compared to control group): significantly decreased; weights of the organs (liver, spleen and thymus gland) ([2]; compared to control group): significantly decreased; increase in lung weight ([2]; preventive experiment, 10 days after PPE): significantly suppressed; damage score of the lung ([2]; preventive experiment, 10 days after PPE, compared with control group): significantly decreased; body weight change ([2]; preventive experiment, up to 10 days after PPE, compared to control group): significant reduction compared to the control group; increase of the average of the alveolar-space area ([2]; preventive experiment, compared to control): significantly suppressed

Q: With `CC1=C(C)C(=O)C(C(CCCCCC(=O)O)c2ccccc2)=C(C)C1=O` (centres unmarked) [seratorodast, reference compound] as the compound, how does the “suppression of LTB4-induced neutrophil migration” value (human neutrophils) read?
A: Its value is “did not suppress the migration at all”.

Q: What about the “respiratory function of COPD patients” value (COPD patients) of the same compound?
A: Its value is “improves the respiratory function”.

Q: Which “respiratory function of COPD patients” value (COPD patients) does the source give for `COc1cc(C(=O)NS(=O)(=O)c2ccccc2C)ccc1Cc1cn(C)c2ccc(NC(=O)OC3CCCC3)cc12` [zafirlukast] here?
A: Its value is “improves the respiratory function”.
